From patent US7115666B2, “Nitrone compounds, pharmaceutical compositions containing the same and methods for treating inflammation and neuropathic pain” (Renovis, Inc., priority 2002, dated 2006)
Entries after “also recorded” stand apart in the source; their conditions may differ.

Columns and labels:
[1] = system: spinal nerve ligation model (Chung model); experiment: Spinal nerve ligation (Chung) model, mechanical allodynia; type: in vivo, rats; details: 25 mg/kg single dosing via i.p.; von Frey filaments
Method: Compound 14 and Compound 23 were prepared for i.p. administration as follows. 250 mg/ml of each of the compounds to be tested, was dissolved in a mixture of Cremophor EL/alcohol (90:10) (volume:volume), respectively, by brief sonication on ice, followed by further 10-fold dilution in saline solution (9% Cremophor EL; 1% ETOH and 90% saline) to give a final concentration of 25 mg/ml. before injection. 1 ml/kg (body weight) of compound solution was administered via i.p. to rats, to yield a dose of 25 mg/kg. 180–200 grams of body weight, male, Sprague-Dawley rats from Harlan were used. They were housed under the standard housing conditions and trained for 1 week before measurement of the baseline. The rats were prepared in the manner described in Example V, above, by i.p. admininstration of Taxol. The spinal nerve ligation surgery was performed as described by Kim & Chung (Kim, S. O., and Chung, J. M., An experimental model for peripheral neuropathy produced by segmental spinal nerve ligation in rat. Pain. 1992; 50:355–363.). The development of neuropathic pain was measured using 50% of threshold measurement using von Frey filaments. […] Generally speaking, the mechanical allodynia in spinal nerve ligation model rats fell in the range of 1–4 grams of the paw withdrawal threshold. The results of the tests are set forth in FIG. 8 and are summarized in the last two rows of Table III.

[2] = system: Taxol-induced neuropathic pain model in mice; experiment: Taxol-induced neuropathic pain model, mechanical allodynia (von Frey filament); type: in vivo
Source text: Taxol is a chemotherapeutic reagent for treatment of cancer patients. Cancer patients under Taxol chemotherapy can develop neuropathic pain, with a symptom of severe mechanical allodynia, so that a light touch (non-noxious stimulus in a normal condition) becomes painful. […] Recent studies have shown that Taxol is involved in TNF-alpha release in microglia cells. As one of the clinically relevant models, Taxol-induced neuropathic pain was developed in mice and rats. It is believed that small-diameter high threshold nociceptive C-fibers in the peripheral sensory nervous systems are largely, if not exclusively, affected in the Taxol-induced neuropathic pain models.
In this series of experiments, five-week old, male C57B1/6 mice were purchased from Charles River and housed at the Renovis animal facility in South San Francisco. Mice were trained for one week in an enclosure made of Plexiglas with dimensions of 2 in×2.5 in×3.5 in (W, H, and L) with a meshed metal support. The baseline of response to mechanical stimulus was measured using a von Frey Filament (0.6 g=3.84 mN). Normally, the baseline response is between 0 to 40%.
Taxol was dissolved (1 mg/ml) in 50% Cremophor EL and 50% alcohol, and freshly diluted with saline to the final concentration of 0.2 mg/ml in 10% Cremophor EL, 10% alcohol. Mice were administered Taxol at 1 mg/kg of body weight, via i.p. daily, while the animals of the control group received vehicle (10% Cremophor EL and 10% alcohol in saline).
Animals receiving this daily dose of Taxol will develop neuropathic pain. The mechanical allodynia was measured at day 7, 8, or 14 after Taxol administration.
A quantity of 200 mg of compound 14 (Example 14) was dissolved in 0.4 ml of 100% DMSO to yield a concentration of 500 mg/ml, and was kept at 4° C. until use. Methylcellulose was dissolved in deionized-distilled water to yield a concentration of 1%. The freshly prepared meythlcellulose was used to make a suspension of the compound, 10 mg of compound in 2.5% DMSO (V/V) and 1% methylcellulose. The suspension was sonicated for 6 min with a 5 second interval every 30 seconds before administration to animals.
A quantity of 50 mg/kg (body weight) compound or vehicle (2.5% DMSO and 1% methylcellulose), 100 μl/20 g (body weight) was given to animals via gavage feeding procedure in a randomized, blinded fashion. The animals were then placed in the enclosure for assay. Mechanical allodynia was measured with von Frey filament (0.6 g=[…]) at various times after administration.
Referring to FIG. 5, baseline in the group of animals was measured as 25+/−4% (n=24, ±SEM) before induction of neuropathic pain with Taxol (or sham treatment), where the response was measured with a von Frey filament (0.6 g=3.84 mN) as the percent of trials a withdrawal response is observed after probing with the filament. The higher the percentage, the greater the inferred pain.
Sixteen animals were treated with Taxol daily to induce neuropathic pain. Mechanical allodynia was assayed at day 8; average withdrawal response was measured as 81±5% (n=16, ±SEM). Sixteen animals were treated with matching vehicle to create sham animals. The Taxol and sham animals were then separated randomly into two groups of 8 animals each for drug vs. vehicle testing. Withdrawal responses to a von Frey filament probe were measured at 1, 6, 24, and 72 hours post-administration of drug or vehicle control, and averaged for each animal. […] Negative values reflect a reduction in inferred pain.
For mouse neuropathic pain studies, C57B1/6 strain, five-weeks old male mice were obtained from Charles River, San Diego, Calif. A total of 120 mice were used for the studies. 4 mice per cage were housed under standard conditions with 12-hour light and 12-hour dark cycles (in Renovis, Inc, South San Francisco facility). For rat neuropathic pain studies, male Sprague-Dawley rats, with body weights ranging from 180–200 grams, were obtained from Harlan. A total of 42 rats were used for this study. […]

[3] = Taxol/mice, P.O., Single dosing, 50 Mg/Kg body weight

Row | Compound | effect on mechanical allodynia (paw withdrawal threshold) [1] | time postdosing of analgesic effect ([2]; 50 mg/kg single dose via oral gavage) | effect on mechanical allodynia (Taxol-induced pain) ([2]; 50 mg/kg single dose via oral gavage, von Frey filament 0.6 g, measured 1, 6, 24, up to 48 or 72 hours postdosing) | Effective time Hour post dosing [2, 3] [h] | extent of block of mechanical allodynia [2, 3]
1 | COc1ccc(CCCC=[N+]([O-])C(C)(C)C)cc1 [Compound 23] | significant analgesic effects over control; also recorded: attenuate mechanical allodynia |  |  |  | 
2 | N-tert-butyl-C-(4-phenylpropyl)nitrone [Compound 14] | significant analgesic effects over control; also recorded: attenuate mechanical allodynia | up to 24 hour | inhibits mechanical allodynia; also recorded: significant reduction of mechanical allodynia; also recorded: activity preventing Taxol-induced pain | ~24 | block
